Laboratory results as given in patent publication US3958011A, “Compositions of tri-n-propylacetic acid and salts thereof and treatment of neurological disorders with such compositions” (priority 1972, dated 1976).

Key:
mice [1] = assay: Traction test (myorelaxant properties); type: in vivo, mice (OF 1)
Protocol: This test enables sense of balance as well as muscular tonus and strength to be evaulated.
The test is carried out on groups of 10 male mice of the OF 1 strain weighing about 25 g. It consists of suspending the mice by the front paws to a horizontally stretched wire. Note is first taken of the time required by a group of control animals to effect recovery i.e. to place at least one of their back paws on the wire.

[2] = Rota rod test (neurotoxicity); type: in vivo; settings: mouse, ip, mice, intraperitoneal, 30 min after administration, read-out: NTD50 (neurotoxic dose 50) in the rota rod test
Protocol: The test used was that known as the rota rod test (BOISSIER-Therapie 1958, XIII, pp. 1074-1118). This test aims at enabling the animals' ability to coordinate their movements to be evaluated. It is carried out on batches of 10 mice each weighing about 25 g. The compound to be tested is administered by intraperitoneal route to the animals of each batch so that each batch receives a higher dose than that given to the preceding batch. Thirty minutes after administration, the mice are placed for two minutes on a wooden roller of 4.8 cm diameter which turns at the rate of 4 revolutions per minute. The roller has a rough surface to prevent the animals from slipping.
By this means, the neurotoxic dose 50 (NTD 50) can be determined, i.e. the dose of the compound with which one half of the animals can no longer stay on the roller during the period of time fixed as the reference period.
In order to obtain an activity index figure 30 minutes after administration the rota rod test described above was also performed using for comparison a known myorelaxant, namely mephenesin.

mice [3] = assay: Maximum electroshock seizure (anticonvulsant action); type: in vivo, mice (OF 1); settings: for ED50: Mus musculus, ip, 0.25 h, i.p., 15 min after administration, protection of 50% against tonic seizures
Protocol: This seizure is characterized in the mouse by extension of the back paws for 5 to 10 seconds. The extension is similar to that observed during the tonicoclonic seizures provoked by chemical convulsants such as pentylenetetrazol or strychnine.
The test was carried out on batches of 10 mice of the OF 1 strain weighing about 22 g. […] Fifteen minutes later, each animal received an electric shock of twice threshold intensity (about 60 volts).
This latter value is indicated by the symbol HD50 or hypnotic dose 50 and the efficacy index by the fraction: [formula]

rats = assay: Anoxic seizure induced by gallamine triiodoethylate (antianoxic properties); type: in vivo, rats (OFA); settings: 2 millimols/kg
From the text: The injection of a sufficient dose of a synthetic curariform substance such as gallamine triiodoethylate provokes in the rat paralysis of the diaphragm. The animal then dies by asphyxia.
Male rats of the OFA strain and weighing about 250 g. were first anesthetized with ether in order to enable tracheotomy to be performed and cortical electrodes to be inserted. Each rat was then maintained under conditions of artificial respiration by means of an appropriate apparatus and a paralysing dose of gallamine triiodoethylate was administered by intraperitoneal route to eliminate spontaneous breathing. The electrocorticogram, the electrocardiogram and the rectal temperature were registered. After a period of 30 minutes during which stabilization of the registrations was obtained the animal was treated with 2 millimols/kg of an oily solution of tri-n-propylacetic acid or an aqueous solution of one of its alkali metal salts. The artificial respiratory apparatus was stopped 5 minutes after treatment and note was taken of the cardiac frequency every 10 seconds as well as of the period of time between the stopping of the apparatus and the appearance of the flat tracing on the electrocorticogram. This period of time represents the period of survival of the animal. The value of the cardiac frequency corresponding to moment of appearance of the flat tracing was calculated by extrapolation.
The same test was performed on control animals but without administration of a compound of the invention.

mice [4] = assay: Pentylenetetrazol-induced seizure (anticonvulsant action); type: in vivo, mice (OF 1); settings: Mus musculus, ip, i.p., 125 mg/kg pentylenetetrazol i.p.
Protocol: The purpose of this test which is carried out on mice is to determine whether the compounds of the invention, when given preventively by intraperitoneal route, are capable at certain doses of protecting some of the animals against the epileptic seizure produced by an adequate and predetermined dose of pentylenetetrazol which would be 100% fatal in the absence of the compound. The test was carried out on batches of 10 male OF 1 mice weighing about 25 g.

Row | SMILES | ED50 (mice [1]; Mus musculus, ip, 0.5 h, i.p., 30 min. after administration, read-out: ED50, loss of traction reflex) [mg/kg] | Activity index: NTD50/ED50 (mice [1]; rota rod NTD50 / traction ED50, 30 minutes after administration) | TD50 at 0.5 h [2] [mg/kg] | ED50 (mice [3]) [mg/kg] | Efficacy index (HD50 compared with ED50) (mice [3]; electroshock ED50 versus hypnotic dose 50) | Increase of period of survival versus controls (rats) [%] | Period of survival (rats; controls 74.3 ± 2.3) [s] | Cardiac frequency when the flat tracing appears (rats; controls 150, calculated by extrapolation) | ED50 (mice [4]; 0.125 h, 7 min. 30 sec after administration) [mg/kg] | ED50 (mice [4]; 0.25 h, 15 min. after administration) [mg/kg] | ED50 (mice [4]; 0.5 h, 30 min. after administration) [mg/kg]
1 | Cc1ccccc1OCC(O)CO (stereo not drawn) [Mephenesin, reference compound] | 250 | 0.4 | 100 | – | – | – | – | – | – | – | –
2 | CCC1(c2ccccc2)C(=O)NC(=O)NC1=O [Phenobarbital, reference compound] | – | – | – | 78 | 1.3 | – | – | – | – | – | –
3 | CCCC(CCC)(CCC)C(=O)O [Tri-n-propylacetic acid, tri-n-propylacetic acid] | – | – | – | 145 | – | 19 | 87.9 ± 3.7 | 109 | 87 | 72 | 124
